{
  "source": "BigSolDB 2.1",
  "data": [
    {"smiles": "CC(C)(C)C(=O)C(Oc1ccc(Cl)cc1)n1cncn1", "note": "(stereo not given)", "values": [
      {"measurement": "solubility (mole fraction)", "setting": "in acetonitrile, 288.15 K", "result": 0.011},
      {"measurement": "solubility (mole fraction)", "setting": "in acetonitrile, 293.15 K", "result": 0.0132},
      {"measurement": "solubility (mole fraction)", "setting": "in acetonitrile, 298.15 K", "result": 0.0162},
      {"measurement": "solubility (mole fraction)", "setting": "in acetonitrile, 303.15 K", "result": 0.0196},
      {"measurement": "solubility (mole fraction)", "setting": "in acetonitrile, 308.15 K", "result": 0.0238},
      {"measurement": "solubility (mole fraction)", "setting": "in acetonitrile, 313.15 K", "result": 0.0285},
      {"measurement": "solubility (mole fraction)", "setting": "in acetonitrile, 318.15 K", "result": 0.034},
      {"measurement": "solubility (mole fraction)", "setting": "in acetonitrile, 323.15 K", "result": 0.0407},
      {"measurement": "solubility (mole fraction)", "setting": "in acetonitrile, 328.15 K", "result": 0.0479},
      {"measurement": "solubility (mole fraction)", "setting": "in acetonitrile, 333.15 K", "result": 0.057},
      {"measurement": "solubility (mole fraction)", "setting": "in cyclohexane, 288.15 K", "result": 0.000445},
      {"measurement": "solubility (mole fraction)", "setting": "in cyclohexane, 293.15 K", "result": 0.00143},
      {"measurement": "solubility (mole fraction)", "setting": "in cyclohexane, 298.15 K", "result": 0.00382},
      {"measurement": "solubility (mole fraction)", "setting": "in cyclohexane, 303.15 K", "result": 0.00873},
      {"measurement": "solubility (mole fraction)", "setting": "in cyclohexane, 308.15 K", "result": 0.0178},
      {"measurement": "solubility (mole fraction)", "setting": "in cyclohexane, 313.15 K", "result": 0.0315},
      {"measurement": "solubility (mole fraction)", "setting": "in cyclohexane, 318.15 K", "result": 0.0489},
      {"measurement": "solubility (mole fraction)", "setting": "in cyclohexane, 323.15 K", "result": 0.0692},
      {"measurement": "solubility (mole fraction)", "setting": "in cyclohexane, 328.15 K", "result": 0.0869},
      {"measurement": "solubility (mole fraction)", "setting": "in cyclohexane, 333.15 K", "result": 0.0986},
      {"measurement": "solubility (mole fraction)", "setting": "in n-heptane, 288.15 K", "result": 0.00129},
      {"measurement": "solubility (mole fraction)", "setting": "in n-heptane, 293.15 K", "result": 0.00204},
      {"measurement": "solubility (mole fraction)", "setting": "in n-heptane, 298.15 K", "result": 0.00321},
      {"measurement": "solubility (mole fraction)", "setting": "in n-heptane, 303.15 K", "result": 0.00483},
      {"measurement": "solubility (mole fraction)", "setting": "in n-heptane, 308.15 K", "result": 0.00737},
      {"measurement": "solubility (mole fraction)", "setting": "in n-heptane, 313.15 K", "result": 0.0111},
      {"measurement": "solubility (mole fraction)", "setting": "in n-heptane, 318.15 K", "result": 0.0164},
      {"measurement": "solubility (mole fraction)", "setting": "in n-heptane, 323.15 K", "result": 0.0238},
      {"measurement": "solubility (mole fraction)", "setting": "in n-heptane, 328.15 K", "result": 0.034},
      {"measurement": "solubility (mole fraction)", "setting": "in n-heptane, 333.15 K", "result": 0.0491},
      {"measurement": "solubility (mole fraction)", "setting": "in n-hexane, 288.15 K", "result": 0.000262},
      {"measurement": "solubility (mole fraction)", "setting": "in n-hexane, 293.15 K", "result": 0.000539},
      {"measurement": "solubility (mole fraction)", "setting": "in n-hexane, 298.15 K", "result": 0.00104},
      {"measurement": "solubility (mole fraction)", "setting": "in n-hexane, 303.15 K", "result": 0.00197},
      {"measurement": "solubility (mole fraction)", "setting": "in n-hexane, 308.15 K", "result": 0.0035},
      {"measurement": "solubility (mole fraction)", "setting": "in n-hexane, 313.15 K", "result": 0.00592},
      {"measurement": "solubility (mole fraction)", "setting": "in n-hexane, 318.15 K", "result": 0.00984},
      {"measurement": "solubility (mole fraction)", "setting": "in n-hexane, 323.15 K", "result": 0.0156},
      {"measurement": "solubility (mole fraction)", "setting": "in n-hexane, 328.15 K", "result": 0.0233},
      {"measurement": "solubility (mole fraction)", "setting": "in n-hexane, 333.15 K", "result": 0.0354},
      {"measurement": "solubility (mole fraction)", "setting": "in p-xylene, 288.15 K", "result": 0.0631},
      {"measurement": "solubility (mole fraction)", "setting": "in p-xylene, 293.15 K", "result": 0.0846},
      {"measurement": "solubility (mole fraction)", "setting": "in p-xylene, 298.15 K", "result": 0.112},
      {"measurement": "solubility (mole fraction)", "setting": "in p-xylene, 303.15 K", "result": 0.147},
      {"measurement": "solubility (mole fraction)", "setting": "in p-xylene, 308.15 K", "result": 0.188},
      {"measurement": "solubility (mole fraction)", "setting": "in p-xylene, 313.15 K", "result": 0.239},
      {"measurement": "solubility (mole fraction)", "setting": "in p-xylene, 318.15 K", "result": 0.299},
      {"measurement": "solubility (mole fraction)", "setting": "in p-xylene, 323.15 K", "result": 0.372},
      {"measurement": "solubility (mole fraction)", "setting": "in p-xylene, 328.15 K", "result": 0.456},
      {"measurement": "solubility (mole fraction)", "setting": "in p-xylene, 333.15 K", "result": 0.553},
      {"measurement": "solubility (mole fraction)", "setting": "in toluene, 288.15 K", "result": 0.0916},
      {"measurement": "solubility (mole fraction)", "setting": "in toluene, 293.15 K", "result": 0.119},
      {"measurement": "solubility (mole fraction)", "setting": "in toluene, 298.15 K", "result": 0.154},
      {"measurement": "solubility (mole fraction)", "setting": "in toluene, 303.15 K", "result": 0.192},
      {"measurement": "solubility (mole fraction)", "setting": "in toluene, 308.15 K", "result": 0.235},
      {"measurement": "solubility (mole fraction)", "setting": "in toluene, 313.15 K", "result": 0.282},
      {"measurement": "solubility (mole fraction)", "setting": "in toluene, 318.15 K", "result": 0.333},
      {"measurement": "solubility (mole fraction)", "setting": "in toluene, 323.15 K", "result": 0.381},
      {"measurement": "solubility (mole fraction)", "setting": "in toluene, 328.15 K", "result": 0.431},
      {"measurement": "solubility (mole fraction)", "setting": "in toluene, 333.15 K", "result": 0.475}
    ]}
  ]
}
